Measurements reported in PMC9667784, “Synthesis, biological evaluation and computational studies of pyrazole derivatives as Mycobacterium tuberculosis CYP121A1 inhibitors” (RSC Medicinal Chemistry, 2022).

Target: BTFA-labelled CYP121_S171C (Mycobacterium tuberculosis, UniProt P9WPP7, S171C)
Assay type: binding

Row | Structure (SMILES) | 19F NMR perturbations of the FG-loop compared with cYY
1 | COc1ccc(-c2nn(-c3ccc(Cl)cc3)cc2Cn2cncn2)cc1 [12b, 1-((1-(4-Chlorophenyl)-3-(4-methoxyphenyl)-1H-pyrazol-4-yl)methyl)-1H-1,2,4-triazole] | more intense than that of cYY
2 | CCOc1ccc(-c2nn(-c3ccc(Cl)cc3)cc2Cn2cncn2)cc1 [12d, 1-((1-(4-Chlorophenyl)-3-(4-ethoxyphenyl)-1H-pyrazol-4-yl)methyl)-1H-1,2,4-triazole] | more intense than that of cYY
